Results published in patent US20090030024A1, “THIAZOLES AS FUNGICIDES” (priority 2005, published 2009).

Test: logP determination by retention times (calibration with alkan-2-ones)
Conditions: not given

SMILES | chromatographic logP
COCC(C)Nc1nc(C)c(-c2ccnc(Nc3cc(OC)c(OC)c(OC)c3)n2)s1 (centres unmarked) [Example 332, 4-{2-[(2-methoxy-1-methylethyl)amino]-4-methyl-1,3-thiazol-5-yl}-N-(3,4,5-trimethoxyphenyl)pyrimidine-2-amine] | 1.85
COc1ccc(Nc2nccc(-c3sc(C4CCCCC4)nc3C)n2)cn1 [Example 217, 4-(2-cyclohexyl-4-methyl-1,3-thiazol-5-yl)-N-(6-methoxypyridin-3-yl)pyrimidine-2-amine] | 3.86
Cc1nc(C(=O)N(C)C)sc1-c1ccnc(Nc2ccccc2)n1 [Example 373, 5-(2-anilinopyrimidin-4-yl)-N,N,4-trimethyl-1,3-thiazole-2-carboxamide] | 2.72
CC(=O)c1cccc(Nc2nccc(-c3sc(C4CCCCC4)nc3C)n2)c1 [Example 6, 1-(3-{[4-(2-cyclohexyl-4-methyl-1,3-thiazol-5-yl)pyrimidin-2-yl]amino}phenyl)ethanone] | 4.11
CCc1nc(C)c(-c2ccnc(Nc3ccc4c(c3)OCCO4)n2)s1 [Example 388, N-(2,3-dihydro-1,4-benzodioxin-6-yl)-4-(2-ethyl-4-methyl-1,3-thiazol-5-yl)pyrimidine-2-amine] | 2.7
Cc1nc(C)c(-c2ccnc(Nc3ccc(C(F)(F)F)cc3)n2)s1 [Example 189, 4-(2,4-dimethyl-1,3-thiazol-5-yl)-N-[4-(trifluoromethyl)phenyl]pyrimidine-2-amine] | 3.56
COc1ccc(OC)c(Nc2nccc(-c3sc(C)nc3C)n2)c1 [Example 391, N-(2,5-dimethoxyphenyl)-4-(2,4-dimethyl-1,3-thiazol-5-yl)pyrimidine-2-amine] | 3.03
COCc1nc(C)c(-c2ccnc(Nc3cccc(C(F)(F)F)c3)n2)s1 [Example 299, 4-[2-(methoxymethyl)-4-methyl-1,3-thiazol-5-yl]-N-[3-(trifluoromethyl)phenyl]pyrimidine-2-amine] | 3.41
COc1ccc(Nc2nccc(-c3sc(C)nc3C)n2)cc1OC [Example 403, N-(3,4-dimethoxyphenyl)-4-(2,4-dimethyl-1,3-thiazol-5-yl)pyrimidine-2-amine] | 2.16

Same assay, conditions: * HPLC reversed-phase C18, 40° C., mobile phase 0.1% aqueous formic acid and acetonitrile, linear gradient 10% to 95% acetonitrile

SMILES | logP
CN(C)c1nc(C(F)(F)F)c(-c2ccnc(Nc3ccc(O)cc3)n2)s1 [Example 697, 4-({4-[2-(dimethylamine)-4-(trifluoromethyl)-1,3-thiazol-5-yl]pyrimidin-2-yl}amino)phenol] | 2.64*
Cc1nc(N(C)C)sc1-c1ccnc(Nc2cccc(N3CCCC3=O)c2)n1 [Example 782, 1-[3-({4-[2-(dimethylamine)-4-methyl-1,3-thiazol-5-yl]pyrimidin-2-yl}amino)phenyl]pyrrolidin-2-one] | 1.65*
CNc1nc(C)c(-c2ccnc(Nc3cccc(Cl)c3)n2)s1 [Example 434, N-(3-chlorophenyl)-4-[4-methyl-2-(methylamine)-1,3-thiazol-5-yl]pyrimidine-2-amine] | 2.03*
CC(=O)Nc1ccc(Nc2nccc(-c3sc(N(C)C)nc3C(F)(F)F)n2)cc1 [Example 699, N-[4-({4-[2-(dimethylamine)-4-(trifluoromethyl)-1,3-thiazol-5-yl]pyrimidin-2-yl}amino)phenyl]acetamide] | 2.58*

Same assay, conditions: logP, * HPLC reversed-phase C18, 40° C., mobile phase 0.1% aqueous formic acid and acetonitrile, linear gradient 10% to 95% acetonitrile

SMILES | chromatographic logP
COc1cc(N(C(C)=O)c2nccc(-c3sc(C(C)C)nc3C)n2)cc(OC)c1OC [Example 666, N-[4-(2-isopropyl-4-methyl-1,3-thiazol-5-yl)pyrimidin-2-yl]-N-(3,4,5-trimethoxyphenyl)acetamide] | 2.53
COCCNc1nc(C)c(-c2ccnc(Nc3ccccc3)n2)s1 [Example 678, 4-{2-[(2-methoxyethyl)amino]-4-methyl-1,3-thiazol-5-yl}-N-phenylpyrimidine-2-amine] | 1.82
COCc1nc(C)c(-c2ccnc(Nc3ccc4c(c3)OCO4)n2)s1 [Example 620, N-1,3-benzodioxol-5-yl-4-[2-(methoxymethyl)-4-methyl-1,3-thiazol-5-yl]pyrimidine-2-amine] | 2.47
COC(=O)Nc1ccc(Nc2nccc(-c3sc(C)nc3C(F)(F)F)n2)cc1 [Example 693, methyl-[4-({4-[2-methyl-4-(trifluoromethyl)-1,3-thiazol-5-yl]pyrimidin-2-yl}amino)phenyl]carbamate] | 2.7
CC(=O)N(Cc1cccc(Nc2nccc(-c3sc(C4CC4)nc3C)n2)c1)C(C)=O [Example 621, N-acetyl-N-(3-{[4-(2-cyclopropyl-4-methyl-1,3-thiazol-5-yl)pyrimidin-2-yl]amino}benzyl)acetamide] | 1.87
Cc1nc(C2CC2)sc1-c1ccnc(Nc2cccc(CN)c2)n1 [Example 537, N-[3-(aminomethyl)phenyl]-4-(2-cyclopropyl-4-methyl-1,3-thiazol-5-yl)pyrimidine-2-amine] | 1.45
Cc1nc(C2CC2)sc1-c1ccnc(Nc2cccc(CNC(=O)OC(C)(C)C)c2)n1 [Example 624, tert-butyl-(3-{[4-(2-cyclopropyl-4-methyl-1,3-thiazol-5-yl)pyrimidin-2-yl]amino}benzyl)carbamate] | 2.87
COC(=O)Nc1ccc(Nc2nccc(-c3sc(C4CC4)nc3C)n2)cc1 [Example 672, methyl-(4-{[4-(2-cyclopropyl-4-methyl-1,3-thiazol-5-yl)pyrimidin-2-yl]amino}phenyl)carbamate] | 2.51
COCC(C)Nc1nc(C)c(-c2ccnc(Nc3cccc(NS(C)(=O)=O)c3)n2)s1 (centres unmarked) [Example 570, N-{3-[(4-{2-[(2-methoxy-1-methylethyl)amino]-4-methyl-1,3-thiazol-5-yl}pyrimidin-2-yl)amino]phenyl}methanesulphonamide] | 1.57
Cc1nc(C(F)(F)F)c(-c2ccnc(Nc3ccc4c(c3)OCO4)n2)s1 [Example 703, N-1,3-benzodioxol-5-yl-4-[2-methyl-4-(trifluoromethyl)-1,3-thiazol-5-yl]pyrimidine-2-amine] | 3.21
CCCc1nc(C)c(-c2ccnc(Nc3ccccc3)n2)s1 [Example 766, 4-(4-methyl-2-propyl-1,3-thiazol-5-yl)-N-phenylpyrimidine-2-amine] | 3.49
CCc1nc(C)c(-c2ccnc(Nc3cncc(C)c3)n2)s1 [Example 747, 4-(2-ethyl-4-methyl-1,3-thiazol-5-yl)-N-(5-methylpyridin-3-yl)pyrimidine-2-amine] | 1.41
Cc1nc(C2CC2)sc1-c1ccnc(Nc2cccc(Cl)c2)n1 [Example 422, N-(3-chlorophenyl)-4-(2-cyclopropyl-4-methyl-1,3-thiazol-5-yl)pyrimidine-2-amine] | 3.94
COc1ccc(Nc2nccc(-c3sc(C)nc3C)n2)cc1O [Example 790, 5-{[4-(2,4-dimethyl-1,3-thiazol-5-yl)pyrimidin-2-yl]amino}-2-methoxyphenol] | 1.79
Cc1nc(N2CCOCC2)sc1-c1ccnc(Nc2cccc(Cl)c2)n1 [Example 745, N-(3-chlorophenyl)-4-(4-methyl-2-morpholin-4-yl-1,3-thiazol-5-yl)pyrimidine-2-amine] | 2.99
COCCNc1nc(C)c(-c2ccnc(Nc3cc(OC)cc(OC)c3)n2)s1 [Example 801, N-(3,5-dimethoxyphenyl)-4-{2-[(2-methoxyethyl)amino]-4-methyl-1,3-thiazol-5-yl}pyrimidine-2-amine] | 1.96
Cc1nc(NCC2CCCO2)sc1-c1ccnc(Nc2ccc(N3CCCC3=O)cc2)n1 (centres unmarked) [Example 720, 1-{4-[(4-{4-methyl-2-[(tetrahydrofuran-2-ylmethyl)amino]-1,3-thiazol-5-yl}pyrimidin-2-yl)amino]phenyl}pyrrolidin-2-one] | 1.6

Same assay, conditions: logP, values marked *: HPLC on reversed-phase C 18, 40° C., mobile phase 0.1% aqueous formic acid and acetonitrile, linear gradient 10% to 95% acetonitrile

SMILES | chromatographic logP
Cc1nc(C)c(-c2nc(Nc3ccccc3)ncc2Br)s1 [Example 909, 5-bromo-4-(2,4-dimethyl-1,3-thiazol-5-yl)-N-phenylpyrimidine-2-amine] | 3.3
COc1ccc(Nc2nccc(-c3sc(NCC4CCCO4)nc3C)n2)cc1OC (centres unmarked) [Example 817, N-(3,4-dimethoxyphenyl)-4-{4-methyl-2-[(tetrahydrofuran-2-ylmethyl)amino]-1,3-thiazol-5-yl}pyrimidine-2-amine] | 1.65
COCCOc1nc(C)c(-c2ccnc(Nc3ccc(OC)nc3)n2)s1 [Example 915, 4-[2-(2-methoxyethoxy)-4-methyl-1,3-thiazol-5-yl]-N-(6-methoxypyridin-3-yl)pyrimidine-2-amine] | 2.34
COCCOc1nc(C)c(-c2ccnc(Nc3cccc(Cl)c3)n2)s1 [Example 913, N-(3-chlorophenyl)-4-[2-(2-methoxyethoxy)-4-methyl-1,3-thiazol-5-yl]pyrimidine-2-amine] | 3.57
COCCCNc1nc(C)c(-c2ccnc(Nc3ccc(N4CCCC4=O)cc3)n2)s1 [Example 856, 1-{4-[(4-{2-[(3-methoxypropyl)amino]-4-methyl-1,3-thiazol-5-yl}pyrimidin-2-yl)amino]phenyl}pyrrolidin-2-one] | 1.57
COCCOc1nc(C)c(-c2ccnc(Nc3cc(OC)c(OC)c(OC)c3)n2)s1 [Example 910, 4-[2-(2-methoxyethoxy)-4-methyl-1,3-thiazol-5-yl]-N-(3,4,5-trimethoxyphenyl)pyrimidine-2-amine] | 2.53
Cc1nc(C(C)C)sc1-c1ccnc(Nc2ccc(N3CCCC3=O)cc2)n1 [Example 831, 1-(4-{[4-(2-isopropyl-4-methyl-1,3-thiazol-5-yl)pyrimidin-2-yl]amino}phenyl)pyrrolidin-2-one] | 2.56

Same assay, conditions: values marked *: HPLC on reversed-phase C 18, 40° C., mobile phase 0.1% aqueous formic acid and acetonitrile, linear gradient 10% to 95% acetonitrile

SMILES | logP
CC(=O)Nc1cccc(Nc2nccc(-c3sc(N(C)C)nc3C(F)(F)F)n2)c1 [Example 860, N-[3-({4-[2-(dimethylamine)-4-(trifluoromethyl)-1,3-thiazol-5-yl]pyrimidin-2-yl}amino)phenyl]acetamide] | 2.65*
